Measurements taken from US20230085307A1, “PYRIDAZINONE COMPOUND AND HERBICIDE” (NISSAN CHEMICAL CORPORATION, priority 2019, published 2023).

Columns and labels:
barnyard grass [1] = experiment: Test Example 3: herbicidal effect by foliage application, Wagner pot (Table 18, symbol H); assay type: in vivo, barnyard grass (Echinochloa crus-galli); conditions: 320 g/ha
Outline: (§1)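 Plants were sown in alluvial soil held under 0.1–0.5 cm standing water and grown 14 days in a greenhouse at 25–30 °C. An emulsifiable formulation, water-diluted to the set dose, was then sprayed onto the foliage, and effects were scored three weeks later using previously defined criteria.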

Chinese sprangletop = experiment: Test Example 3: herbicidal effect by foliage application, Wagner pot (Table 18, symbol D); assay type: in vivo, chinese sprangletop (Leptochloa chinensis); conditions: 320 g/ha
Outline: as §1

rice flat sedge = experiment: Test Example 3: herbicidal effect by foliage application, Wagner pot (Table 18, symbol E); assay type: in vivo, rice flat sedge (Cyperus iria); conditions: 320 g/ha
Outline: as §1

southern crabgrass [2] = experiment: Test Example 4: herbicidal effect by soil treatment (Table 19, symbol F); assay type: in vivo, southern crabgrass (Digitaria ciliaris); conditions: amount of applied herbicide 320 g/ha
Outline: (§2)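 In this soil treatment, the formulated compound reached the seeds only through the soil: seeds were buried about 1.5 cm deep in sterilized diluvial soil, then the diluted emulsion was sprayed over the surface. After three weeks at 25° C. to 30° C. in a greenhouse, effects were graded on criteria from an earlier test.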

green foxtail [3] = experiment: Test Example 4: herbicidal effect by soil treatment (Table 19, symbol G); assay type: in vivo, green foxtail (Setaria viridis); conditions: amount of applied herbicide 320 g/ha
Outline: as §2

barnyard grass [4] = experiment: Test Example 4: herbicidal effect by soil treatment (Table 19, symbol H); assay type: in vivo, barnyard grass (Echinochloa crus-galli); conditions: amount of applied herbicide 320 g/ha
Outline: as §2

wild oat [5] = experiment: Test Example 4: herbicidal effect by soil treatment (Table 19, symbol I); assay type: in vivo, wild oat (Avena fatua); conditions: amount of applied herbicide 320 g/ha
Outline: as §2

blackgrass [6] = experiment: Test Example 4: herbicidal effect by soil treatment (Table 19, symbol J); assay type: in vivo, blackgrass (Alopecurus myosuroides); conditions: amount of applied herbicide 320 g/ha
Outline: as §2

Italian ryegrass [7] = experiment: Test Example 4: herbicidal effect by soil treatment (Table 19, symbol K); assay type: in vivo, Italian ryegrass (Lolium multiflorum); conditions: amount of applied herbicide 320 g/ha
Outline: as §2

windgrass [8] = experiment: Test Example 4: herbicidal effect by soil treatment (Table 19, symbol L); assay type: in vivo, windgrass (Apera spica-venti); conditions: amount of applied herbicide 320 g/ha
Outline: as §2

velvetleaf [9] = experiment: Test Example 4: herbicidal effect by soil treatment (Table 19, symbol M); assay type: in vivo, velvetleaf (Abutilon theophrasti); conditions: amount of applied herbicide 320 g/ha
Outline: as §2

redroot pigweed [10] = experiment: Test Example 4: herbicidal effect by soil treatment (Table 19, symbol N); assay type: in vivo, redroot pigweed (Amaranthus retroflexus); conditions: amount of applied herbicide 320 g/ha
Outline: as §2

lambsquarters [11] = experiment: Test Example 4: herbicidal effect by soil treatment (Table 19, symbol O); assay type: in vivo, lambsquarters (Chenopodium album); conditions: amount of applied herbicide 320 g/ha
Outline: as §2

chickweed [12] = experiment: Test Example 4: herbicidal effect by soil treatment (Table 19, symbol P); assay type: in vivo, common chickweed (Stellaria media); conditions: amount of applied herbicide 320 g/ha
Outline: as §2

persian speedwell [13] = experiment: Test Example 4: herbicidal effect by soil treatment (Table 19, symbol R); assay type: in vivo, Persian speedwell (Veronica persica); conditions: amount of applied herbicide 320 g/ha
Outline: as §2

southern crabgrass [14] = experiment: Test Example 5: herbicidal effect by foliage application, plastic box (Table 20, symbol F); assay type: in vivo, southern crabgrass (Digitaria ciliaris); conditions: 320 g/ha, foliage application after 14-day growth, evaluated three weeks after application
Outline: (§3)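 Plants were sown into sterilized diluvial soil under about 1.5 cm cover and kept in a greenhouse at 25° C. to 30° C. Fourteen days on, foliage received an even spray of the diluted emulsion. Herbicidal or crop effect was judged three weeks afterwards.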

green foxtail [15] = experiment: Test Example 5: herbicidal effect by foliage application, plastic box (Table 20, symbol G); assay type: in vivo, green foxtail (Setaria viridis); conditions: 320 g/ha, foliage application after 14-day growth, evaluated three weeks after application
Outline: as §3

barnyard grass [16] = experiment: Test Example 5: herbicidal effect by foliage application, plastic box (Table 20, symbol H); assay type: in vivo, barnyard grass (Echinochloa crus-galli); conditions: 320 g/ha, foliage application after 14-day growth, evaluated three weeks after application
Outline: as §3

wild oat [17] = experiment: Test Example 5: herbicidal effect by foliage application, plastic box (Table 20, symbol I); assay type: in vivo, wild oat (Avena fatua); conditions: 320 g/ha, foliage application after 14-day growth, evaluated three weeks after application
Outline: as §3

blackgrass [18] = experiment: Test Example 5: herbicidal effect by foliage application, plastic box (Table 20, symbol J); assay type: in vivo, blackgrass (Alopecurus myosuroides); conditions: 320 g/ha, foliage application after 14-day growth, evaluated three weeks after application
Outline: as §3

Italian ryegrass [19] = experiment: Test Example 5: herbicidal effect by foliage application, plastic box (Table 20, symbol K); assay type: in vivo, Italian ryegrass (Lolium multiflorum); conditions: 320 g/ha, foliage application after 14-day growth, evaluated three weeks after application
Outline: as §3

windgrass [20] = experiment: Test Example 5: herbicidal effect by foliage application, plastic box (Table 20, symbol L); assay type: in vivo, windgrass (Apera spica-venti); conditions: 320 g/ha, foliage application after 14-day growth, evaluated three weeks after application
Outline: as §3

velvetleaf [21] = experiment: Test Example 5: herbicidal effect by foliage application, plastic box (Table 20, symbol M); assay type: in vivo, velvetleaf (Abutilon theophrasti); conditions: 320 g/ha, foliage application after 14-day growth, evaluated three weeks after application
Outline: as §3

redroot pigweed [22] = experiment: Test Example 5: herbicidal effect by foliage application, plastic box (Table 20, symbol N); assay type: in vivo, redroot pigweed (Amaranthus retroflexus); conditions: 320 g/ha, foliage application after 14-day growth, evaluated three weeks after application
Outline: as §3

lambsquarters [23] = experiment: Test Example 5: herbicidal effect by foliage application, plastic box (Table 20, symbol O); assay type: in vivo, lambsquarters (Chenopodium album); conditions: 320 g/ha, foliage application after 14-day growth, evaluated three weeks after application
Outline: as §3

chickweed [24] = experiment: Test Example 5: herbicidal effect by foliage application, plastic box (Table 20, symbol P); assay type: in vivo, common chickweed (Stellaria media); conditions: 320 g/ha, foliage application after 14-day growth, evaluated three weeks after application
Outline: as §3

persian speedwell [25] = experiment: Test Example 5: herbicidal effect by foliage application, plastic box (Table 20, symbol R); assay type: in vivo, Persian speedwell (Veronica persica); conditions: 320 g/ha, foliage application after 14-day growth, evaluated three weeks after application
Outline: as §3

SMILES | herbicidal effect on barnyard grass (H) (barnyard grass [1]) | herbicidal effect on Chinese sprangletop (D) (Chinese sprangletop) | herbicidal effect on rice flat sedge (E) (rice flat sedge) | Herbicidal effect by soil treatment, F: southern crabgrass (southern crabgrass [2]) | Herbicidal effect by soil treatment, G: green foxtail (green foxtail [3]) | Herbicidal effect by soil treatment, H: barnyard grass (barnyard grass [4]) | Herbicidal effect by soil treatment, I: wild oat (wild oat [5]) | Herbicidal effect by soil treatment, J: blackgrass (blackgrass [6]) | Herbicidal effect by soil treatment, K: Italian ryegrass (Italian ryegrass [7]) | Herbicidal effect by soil treatment, L: windgrass (windgrass [8]) | Herbicidal effect by soil treatment, M: velvetleaf (velvetleaf [9]) | Herbicidal effect by soil treatment, N: redroot pigweed (redroot pigweed [10]) | Herbicidal effect by soil treatment, O: lambsquarters (lambsquarters [11]) | Herbicidal effect by soil treatment, P: chickweed (chickweed [12]) | Herbicidal effect by soil treatment, R: persian speedwell (persian speedwell [13]) | herbicidal effect on F: southern crabgrass (evaluation grade 0-5) (southern crabgrass [14]) | herbicidal effect on G: green foxtail (evaluation grade 0-5) (green foxtail [15]) | herbicidal effect on H: barnyard grass (evaluation grade 0-5) (barnyard grass [16]) | herbicidal effect on I: wild oat (evaluation grade 0-5) (wild oat [17]) | herbicidal effect on J: blackgrass (evaluation grade 0-5) (blackgrass [18]) | further results
CCCC(=O)Oc1c(C)nn(C)c(=O)c1-c1c(-c2ccc(F)cc2OC)sc2c(Cl)cccc12 [4-034] | 4 (Herbicidal rate of 70% or more and less than 90%) | 5 (Herbicidal rate of 90% or more (almost completely withered)) | 4 (Herbicidal rate of 70% or more and less than 90%) | 3 (Herbicidal rate of 40% or more and less than 70%) | 4 (Herbicidal rate of 70% or more and less than 90%) | 3 (Herbicidal rate of 40% or more and less than 70%) | 0 (Herbicidal rate of 5% or less (almost no effect)) | 0 (Herbicidal rate of 5% or less (almost no effect)) | 0 (Herbicidal rate of 5% or less (almost no effect)) | 0 (Herbicidal rate of 5% or less (almost no effect)) | 2 (Herbicidal rate of 20% or more and less than 40%) | 4 (Herbicidal rate of 70% or more and less than 90%) | 3 (Herbicidal rate of 40% or more and less than 70%) | 0 (Herbicidal rate of 5% or less (almost no effect)) | 0 (Herbicidal rate of 5% or less (almost no effect)) | 0 (Herbicidal rate of 5% or less (almost no effect)) | 3 (Herbicidal rate of 40% or more and less than 70%) | 3 (Herbicidal rate of 40% or more and less than 70%) | 0 (Herbicidal rate of 5% or less (almost no effect)) | 0 (Herbicidal rate of 5% or less (almost no effect)) | herbicidal effect on K: Italian ryegrass (evaluation grade 0-5) (Italian ryegrass [19]): 0 (Herbicidal rate of 5% or less (almost no effect)); herbicidal effect on L: windgrass (evaluation grade 0-5) (windgrass [20]): 5 (Herbicidal rate of 90% or more (almost completely withered)); herbicidal effect on M: velvetleaf (evaluation grade 0-5) (velvetleaf [21]): 3 (Herbicidal rate of 40% or more and less than 70%); herbicidal effect on N: redroot pigweed (evaluation grade 0-5) (redroot pigweed [22]): 1 (Herbicidal rate of 5% or more and less than 20%); herbicidal effect on O: lambsquarters (evaluation grade 0-5) (lambsquarters [23]): 0 (Herbicidal rate of 5% or less (almost no effect)); herbicidal effect on P: chickweed (evaluation grade 0-5) (chickweed [24]): 5 (Herbicidal rate of 90% or more (almost completely withered)); herbicidal effect on R: persian speedwell (evaluation grade 0-5) (persian speedwell [25]): 4 (Herbicidal rate of 70% or more and less than 90%)
Cc1nn(C)c(=O)c(-c2c(-c3ccc(OC(F)(F)F)cc3)sc3c(F)cccc23)c1O [4-048] | 5 (Herbicidal rate of 90% or more (almost completely withered)) | 5 (Herbicidal rate of 90% or more (almost completely withered)) | 5 (Herbicidal rate of 90% or more (almost completely withered)) | 1 (Herbicidal rate of 5% or more and less than 20%) | 0 (Herbicidal rate of 5% or less (almost no effect)) | 2 (Herbicidal rate of 20% or more and less than 40%) | 0 (Herbicidal rate of 5% or less (almost no effect)) | 0 (Herbicidal rate of 5% or less (almost no effect)) | 0 (Herbicidal rate of 5% or less (almost no effect)) | 0 (Herbicidal rate of 5% or less (almost no effect)) | 0 (Herbicidal rate of 5% or less (almost no effect)) | 3 (Herbicidal rate of 40% or more and less than 70%) | 1 (Herbicidal rate of 5% or more and less than 20%) | 1 (Herbicidal rate of 5% or more and less than 20%) | 5 (Herbicidal rate of 90% or more (almost completely withered)) | 1 (Herbicidal rate of 5% or more and less than 20%) | 5 (Herbicidal rate of 90% or more (almost completely withered)) | 5 (Herbicidal rate of 90% or more (almost completely withered)) | 3 (Herbicidal rate of 40% or more and less than 70%) | 0 (Herbicidal rate of 5% or less (almost no effect)) | herbicidal effect on K: Italian ryegrass (evaluation grade 0-5) (Italian ryegrass [19]): 4 (Herbicidal rate of 70% or more and less than 90%); herbicidal effect on L: windgrass (evaluation grade 0-5) (windgrass [20]): 5 (Herbicidal rate of 90% or more (almost completely withered)); herbicidal effect on M: velvetleaf (evaluation grade 0-5) (velvetleaf [21]): 3 (Herbicidal rate of 40% or more and less than 70%); herbicidal effect on N: redroot pigweed (evaluation grade 0-5) (redroot pigweed [22]): 5 (Herbicidal rate of 90% or more (almost completely withered)); herbicidal effect on O: lambsquarters (evaluation grade 0-5) (lambsquarters [23]): 3 (Herbicidal rate of 40% or more and less than 70%); herbicidal effect on P: chickweed (evaluation grade 0-5) (chickweed [24]): 5 (Herbicidal rate of 90% or more (almost completely withered)); herbicidal effect on R: persian speedwell (evaluation grade 0-5) (persian speedwell [25]): 5 (Herbicidal rate of 90% or more (almost completely withered))
